One series has as its system XylS/Pm system. The settings on record: Calero 2016; cited from earlier work.
Another series has as its system PNP FlB1. The series is described as follows: In vitro phosphorylase activity assay with cell extracts expressing FlB1. In kind it is biochemical, Streptomyces sp. MA37. The settings on record: 20 hours of incubation, extracts with plasmid pFB-T7FlB1(NHis). The protocol: In vitro biofluorination was performed with the strain P. putida KT2440 harboring the plasmids pFB-PmflA1, pFB-PT7flB1(NHis), and pFB-PT7flA1, and pPS23 or pSEVA231-PT7pr as negative controls, respectively. Overnight cultures of the strains were diluted to an OD600 of 0.1 in fresh minimal medium, in 250-ml shake flasks. Cells were grown for six hours at 30° C. with shaking of 200 rpm, when they reached an OD600 between 0.4-0.6, after which they were induced with 3-MB 1 mM for the XylS/Pm system or 15 mM of NaF for the FRS-PT7. After 20 hours of incubation, all the volume of culture was centrifuged at 5000 rpm for 10 minutes at 4° C., and the supernatant was discarded. Cellular pellets were washed with Tris-HCl 50 mM pH7.8 and resuspended in a final volume of 3 ml. Cells were disrupted using glass beads in a bead beater, using a program of 6000 rpm for 20 seconds. […] Protein concentrations were determined using a Bradford assay, yielding a concentration of at least 1 mg/ml.
Similarly, for phosphorylase activity assays, 1 ml of the protein fraction from cultures expressing the phosphorylase was then mixed with 0.2 mM of 5′-FDA, in Tris-HCl 50 mM pH7.8. […] After 20 hours of incubation at 30° C., the rest of the reaction was inactivated as described before and the supernatant was taken and analyzed by HPLC. […]

Series [1] concerns the target T1, E. coli PNP, coded by the gene deoD (Escherichia coli, UniProt P0ABP8).
T1 construct: made in house; host or cells: Pseudomonas putida (pPS23 vector, XylS/Pm system; crude cell extract, not purified)
The series is described as follows: In vitro conversion of 5′-FDA by cell extracts expressing DeoD. In kind it is biochemical. To be noted: 20 hours. The protocol: (§1) The E. coli purine nucleotide phosphorylase, coded by the gene deoD (SEQ ID NO: 14), as well as the nucleosidase pfs (SEQ ID NO: 16), were amplified by PCR from the genome of the strain MG1655 using reverse primers containing the sequence to introduce a 6×His tag, in order to allow purification if needed. These fragments were respectively mixed with a PCR fragment amplified with USER primers of the pPS23 vector, containing the XylS/Pm expression system. The cloning was performed by USER cloning as described above.
(§2) We furthermore explored the possibility that 5′-FDA could be utilized for other enzymes different to the endogenous of the fluorination pathway from Streptomyces. For this purpose, we used another PNP and a nucleosidase of E. coli. The E. coli PNP, coded by the gene deoD (SEQ ID NO: 14), is able to perform the same reaction as FlB1, and produce 5′-FDRP, whereas the nucleosidase, coded by the gene pfs (SEQ ID NO: 16), removes the […] of 5′-FDA, yielding the sugar 5′-fluorodeoxyribose. These three enzymes share a similarity of 26% in their amino acidic sequence, and contain a common domain, the PNP_UDP_1 domain (PF0148), belonging to the Phosphorylase superfamily. To test the activity of these two enzymes, they were overexpressed in P. putida and the cell extracts were incubated with the substrate 5′-FDA.

The target of series [2] is T2, nucleosidase, coded by the gene pfs (Escherichia coli, UniProt P0AF12).
T2 construct: made in house; host or cells: Pseudomonas putida (pPS23 vector, XylS/Pm system; crude cell extract, not purified)
The series can be described thus: In vitro conversion of 5′-FDA by cell extracts expressing Pfs. It is filed as biochemical, E. coli. To be noted: 20 hours. The protocol:
as §1, §2

The test system of series [3] is P. putida KT2440ΔcrcB. The protocol: (§3) Overnight cultures of P. putida KT2440 and P. putida KT2440ΔcrcB were diluted 20 times in 10 mL of modified M9 minimal medium containing different concentrations of NaF. Cells were grown in 96-well microtiter plates (flat bottom, Greiner Bio-one) at 30° C. and 200 rpm in an ELx808 microtiter plate reader (BioTek). Cells exposed to NaF at various concentrations were incubated in a microtiter plate reader for 24 hours, and growth was followed by measuring OD630 every 30 minutes. The concentrations used for each strain were 0, 25, 50, 75, 125, 200 and 250 mM for P. putida KT2440, and 0, 0.1, 0.5, 1 and 5 mM for P. putida KT2440ΔcrcB.
(§4) The effect of the deletion of crcB on the growth in the presence of high concentrations of NaF in P. putida KT2440 was assessed by calculating the minimal inhibitory concentrations (MICs) of NaF needed to suppress the growth in both a wild-type and a ΔcrcB mutant.

The next series relates to P. putida KT2440. To be noted: minimal medium, A600 after 20 hours. The procedure:
as §3, §4

Series [4] has as its system P. putida KT2440ΔcrcB. The settings on record: data not shown. The protocol: Growth arrest by NaF in P. putida KT2440ΔcrcB was performed by diluting 20 times the overnight cultures in 10 mL of modified M9 minimal medium. Cells were grown in 96-well microtiter plates (flat bottom, Greiner Bio-one) at 30° C. and 200 rpm in an ELx808 microtiter plate reader (BioTek). After six hours of incubation, the cultures had reached an OD630 of 0.5, and the NaF was added at different concentrations. Cells exposed to the stressor were incubated in a microtiter plate reader for 24 hours, and growth was followed by measuring OD630 every 30 minutes. The concentrations of NaF used were 0, 0.05, 0.1, 0.5, 0.75, 1, 2 and 5 mM.
To explore the possibility of having a growth-decoupled platform for biofluorination, we tested the effect of NaF in the growth when added in mid-exponential phase.

For series [5], the system named is F^− responsive riboswitch (FRS) from P. syringae. The series is described as follows: Expression assay, FRS constructs FRSv1-4 before msfGFP in P. putida KT2440. It is filed as cell-based, Pseudomonas putida. The settings on record: 0, 1, 5 and 15 mM of NaF.
Experimental: Overnight cultures of P. putida KT2440 with plasmids pSEVA441-FRSv1, pSEVA441-FRSv2, pSEVA441-FRSv3, pSEVA441-FRSv4, or pSEVA441 as autofluorescence control, were diluted 40 times in 10 ml of minimal medium. […] Subsequently, kinetics of the growth and fluorescence, using wavelengths of excitation and emission of 485 nm and 528 nm, respectively, were performed using a SynergyMX (BioTek) microtiter plate reader for 20 hours. Measurements for kinetics were carried out every ten minutes and three independent biological replicates were carried out.
To check the performance of the riboswitch in P. putida KT2440 we cloned four different versions of the riboswitch before the fluorescent reporter protein msfGFP. In the constructions FRSv1 and FRSv2 we kept the original promoter of gene eriC^F, whereas in FRSv3 and FRSv4 we changed the promoter to a constitutive heterologous promoter, PEM7. In the constructions FRSv1 and FRSv3 we conserved the first 8 amino acids of the original eriC^F gene as well, whereas FRSv2 and FRSv4 started with the coding sequence of the msfGFP (FIG. 2).
Series [6] concerns FRS-PT7 system. The series is described as follows: Expression assay, FRS-PT7 system with PT7-msfgfp in P. putida KT2440ΔcrcB::FRS-T7RNAP. In kind it is cell-based, Pseudomonas putida. The settings on record: lower NaF concentrations than in the P. putida KT2440 background.
Experimental: (§5) Overnight cultures of P. putida KT2440 with plasmids pSEVA441-FRSv1, pSEVA441-FRSv2, pSEVA441-FRSv3, pSEVA441-FRSv4, or pSEVA441 as autofluorescence control, were diluted 40 times in 10 ml of minimal medium. […] Subsequently, kinetics of the growth and fluorescence, using wavelengths of excitation and emission of 485 nm and 528 nm, respectively, were performed using a SynergyMX (BioTek) microtiter plate reader for 20 hours. Measurements for kinetics were carried out every ten minutes and three independent biological replicates were carried out. The same procedure was carried out with P. putida KT2440::FRS-T7RNAP and P. putida KT2440ΔcrcB::FRS-T7RNAP strains containing the plasmid pSEVA231-T7pr::msfGFP as well as with the plasmid pSEVA231-T7pr, used as an autofluorescence control.
For series [7], the system named is FRS-PT7 system.
Experimental: as §5

Molecules are shown by their SMILES. Where two headings read alike, the source gives them in different places.

T1 sequence (P0ABP8 whole entry): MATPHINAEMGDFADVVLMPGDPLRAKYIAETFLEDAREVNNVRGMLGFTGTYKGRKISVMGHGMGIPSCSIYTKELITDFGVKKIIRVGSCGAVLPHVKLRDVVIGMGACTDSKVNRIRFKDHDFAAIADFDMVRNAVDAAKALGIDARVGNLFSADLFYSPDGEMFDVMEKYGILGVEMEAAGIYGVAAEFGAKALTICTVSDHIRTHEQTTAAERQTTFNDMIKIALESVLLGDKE
T2 sequence (P0AF12 whole entry): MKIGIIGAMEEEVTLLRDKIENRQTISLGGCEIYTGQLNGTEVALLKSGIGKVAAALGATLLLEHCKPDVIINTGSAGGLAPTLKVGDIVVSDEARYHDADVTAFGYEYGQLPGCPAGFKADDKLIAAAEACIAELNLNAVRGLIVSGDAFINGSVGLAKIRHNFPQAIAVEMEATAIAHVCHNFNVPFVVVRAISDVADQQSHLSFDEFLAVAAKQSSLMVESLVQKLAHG

As to `Cc1cccc(C(=O)O)c1` [3-MB, 3-methylbenzoate], the “Inducer concentration needed to achieve full expression” value in the series on XylS/Pm system is on record as 0.5 mM.
Take `Nc1ncnc2c1ncn2[C@@H]1O[C@H](CF)[C@@H](O)[C@H]1O` [5′-FDA, 5′-fluoro-5′-deoxyadenosine]: in the series on PNP FlB1, the “Change of 5′-FDA concentration versus initial concentration” value is on record as “a decrease in the concentration of 5′-FDA”. The “Consumption of substrate 5′-FDA (product 5′-FDRP detected by LC-MS)” value in series [1] is reported as “reduced or depleted completely”. For the same compound, the “Consumption of substrate 5′-FDA (product 5′-fluorodeoxyribose detected by LC-MS)” value in [2] is “reduced or depleted completely”.
As for `[Cl-].[Na+]` [NaCl, reference compound], the “Effect on growth of the ΔcrcB mutant versus wild-type” value with P. putida KT2440ΔcrcB [3] (same assays in the presence of NaCl, data not shown) is “no such effect was seen”.
For `[F-].[Na+]` [NaF, Sodium fluoride], the “NaF concentration in which the strain was able to thrive (MIC assay)” value in the series on P. putida KT2440 is 75 mM. Also, the “Growth inhibition on plates” value in the series on P. putida KT2440ΔcrcB [3] (LB plates containing 0.5 and 1 mM of NaF) is listed as “This effect was also seen”. The “NaF concentration at which the strain was not able to grow (MIC assay)” value with P. putida KT2440ΔcrcB [3] (minimal medium, A600 after 20 hours) was determined as 0.5 mM. Besides, the Effect on growth entry in the series on P. putida KT2440ΔcrcB [4] (0.5 mM of NaF added in mid-exponential phase) is given as “a decrease in the growth phase was found”; in the series with P. putida KT2440ΔcrcB [4] (1 mM of NaF added in mid-exponential phase), “stopped cell growth almost completely”. Also, the “Fluorescence response of the four FRS constructs” value in [5] is given as “an increase of the fluorescence when higher concentrations of NaF were used”. Moreover, the “Expression levels relative to the wild-type background” value in the series on FRS-PT7 system [6] is “almost two times higher than in the wild-type background”. In addition, in the series on FRS-PT7 system [7] (0, 1 and 15 mM of NaF), the “Fluorescence response of the FRS-PT7 system” value was “led to an increase of the cells fluorescence”. In addition, the “Final growth of the cultures” value in the series with FRS-PT7 system [7] (NaF concentrations used for induction (up to 15 mM)) is “not affected”.
